Reference: paper PMC4502414, “Transforming berberine into its intestine-absorbable form by the gut microbiota” (Scientific Reports, 2015)

Assays:
[1] = tested on: rat small intestinal bacteria (RSIB); experiment: Conversion of BBR into dhBBR by rat small intestinal bacteria in vitro; assay type: in vitro ADME; conditions: BBR incubated with rat small intestine bacteria
Experimental: The small intestine contents from ten sacrificed SD rats were obtained and mixed with anaerobic medium to prepare the cultures. BBR was added into the incubation at final concentrations of 100, 50, and 10 μg/ml, and the reaction was continued for 6, 12 or 24 h. Levels of BBR, dhBBR and other BBR metabolites were determinedusing the LC-MS/MS 8040 and GC-MS instruments according to the above-mentioned method.

[2] = target: T1, monoamine oxidase-B (MAO-B) (Homo sapiens, UniProt P27338); conditions: cell-free system, dhBBR 100 μM, 30 min
T1 sequence (P27338 1-520): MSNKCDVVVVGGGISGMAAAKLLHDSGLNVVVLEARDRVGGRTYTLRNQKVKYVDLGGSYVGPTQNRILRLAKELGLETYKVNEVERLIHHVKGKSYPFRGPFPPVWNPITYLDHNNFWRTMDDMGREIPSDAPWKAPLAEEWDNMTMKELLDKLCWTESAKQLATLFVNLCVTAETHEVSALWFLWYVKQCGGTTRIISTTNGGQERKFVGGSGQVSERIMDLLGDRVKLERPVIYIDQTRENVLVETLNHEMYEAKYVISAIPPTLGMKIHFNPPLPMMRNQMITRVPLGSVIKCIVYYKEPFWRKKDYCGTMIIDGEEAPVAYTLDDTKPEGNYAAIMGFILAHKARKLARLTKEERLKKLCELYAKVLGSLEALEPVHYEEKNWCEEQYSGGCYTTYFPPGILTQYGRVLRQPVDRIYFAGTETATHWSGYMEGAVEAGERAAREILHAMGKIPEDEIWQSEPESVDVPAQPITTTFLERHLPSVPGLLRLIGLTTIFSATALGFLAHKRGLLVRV
Experimental: (§1) The reaction system consisted of dhBBR (100 μM), MAO-B (0.2 mg/ml) and phosphate-buffered saline (PBS, pH = 7.4) in a final volume of 200 μl. The MAO-B was pre-incubated via centrifugation at 850 rpm at 37 °C for 5 min, and this step was followed by the addition of dhBBR. The reaction was terminated after 30 min by adding an equal volume of ice-cold acetonitrile and centrifuging at 14,000 g for 5 min. Ten microliters of the supernatant was injected into the HPLC instrument for analysis.

[3] = tested on: rat large intestinal bacteria (RLIB); experiment: Conversion of BBR into dhBBR by rat large intestinal bacteria in vitro; assay type: in vitro ADME; conditions: BBR incubated with rat large intestinal bacteria
Experimental: The method was reported previously. Briefly, colon contents from six rats were pooled, and 5 g of the sample was transferred into a flask containing the anaerobic medium (100 ml). After thorough mixing, the cultures (which contained intestinal bacteria and anaerobic medium) were pre-incubated under anaerobic conditions with a N2 atmosphere at 37 °C for 60 min. Rutin (10 μl, 1.0 mg/ml in methanol) was used as a positive reference for intestinal metabolism.
Ten microliters of BBR at different concentrations was added into the fresh human or rat intestinal bacteria cultures (990 μl), with methanol (10 μl) as the negative control. The final concentrations of BBR in the incubation system were 100, 10, and 5 μg/ml. The cultures were incubated at 37 °C for 72 h in the presence or absence of human or rat intestinal bacteria.
After termination of the reaction with acetonitrile (1 ml), 50 μl of the internal standard (tetrahydropalmatine, 2.0 mg/ml in methanol) was added into the BBR samples, which were then mixed for 30 sec and centrifuged at 7,500 g for 15 min. The supernatant was dried under nitrogen flow at room temperature, and the residue was dissolved in 100 μl of methanol and centrifuged at 7,500 g for 15 min. The metabolites were analyzed by LC/MS^n-IT-TOF using a previously reported method. […]

[4] = Excretion of BBR, dhBBR and other BBR metabolites in rat feces, urine and bile after oral BBR; assay type: in vivo, SD rats
Experimental: For the analysis of the in vivo intestinal metabolites of BBR, six SD rats were orally treated with BBR (200 mg/kg), and their feces were collected 0, 6, 12, 24, 36, 48, and 72 h after treatment. The method used for the preparation of the feces was reported previously. An aliquot of 1 μl was injected into the GC-MS instrument. The level of dhBBR in feces was measured and calculated based on the standard curve obtained with the in vitro intestinal bacteria incubation mixture.

[5] = Transformation of dhBBR in pooled human intestinal microsomes (HIMs); assay type: in vitro ADME
Experimental: The mixture was incubated at 37 °C with exposure to air for 2, 5 and 10 min and was terminated by the addition of 200 μl of ice-cold acetonitrile. Then, 20 μl of the internal standard was added to the mixture, and the mixture was centrifuged at 14,000 g for 5 min. Fifty microliters of the supernatant was injected into the HPLC instrument for analysis. The control samples were incubated under the same conditions but without HIMs.

nitroreductase = target: T2, nitroreductase (Escherichia coli, UniProt P38489); experiment: Nitroreductase-mediated BBR reduction, cell-free incubation; assay type: biochemical; conditions: BBR with nitroreductase, 37 °C
T2 construct: purchased Sigma-Aldrich Co. (Shanghai, China); host or cells: Escherichia coli
T2 sequence (P38489 whole entry): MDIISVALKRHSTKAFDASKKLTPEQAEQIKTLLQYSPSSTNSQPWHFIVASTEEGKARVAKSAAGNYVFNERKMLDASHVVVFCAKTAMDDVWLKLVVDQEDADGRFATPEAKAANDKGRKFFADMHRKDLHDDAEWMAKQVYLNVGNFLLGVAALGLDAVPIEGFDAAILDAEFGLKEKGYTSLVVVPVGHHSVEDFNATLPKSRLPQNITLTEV
Experimental: BBR was incubated with nitroreductase in intestinal bacteria cultures. The reaction mixture consisted of BBR (50 μg/ml), an NADPH-regenerating system and nitroreductase (5 μg/ml) in a final volume of 1 ml under the protection of N2. After incubation for 0, 2, 4, 6 and 12 h at 37 °C, the reaction was terminated by the addition of 1 ml of ice-cold acetonitrile. The samples were then extracted with 1 ml of ethyl acetate after adding 1 ml of 0.5 M sodium hydroxide solution. The organic phase was evaporated to dryness under a nitrogen flow in a water bath at 40 °C. The residue was dissolved with 200 μl of the mobile phase for further analysis. 2-Iodosobenzoic acid (2-IBA), a specific inhibitor of nitroreductase, was used to verify the role of bacterial nitroreductase.

MAO-B = target: T3, MAO-B (Rattus norvegicus, UniProt P19643); conditions: intestinal homogenate, 30 min, no inhibitor
T3 sequence (P19643 1-520): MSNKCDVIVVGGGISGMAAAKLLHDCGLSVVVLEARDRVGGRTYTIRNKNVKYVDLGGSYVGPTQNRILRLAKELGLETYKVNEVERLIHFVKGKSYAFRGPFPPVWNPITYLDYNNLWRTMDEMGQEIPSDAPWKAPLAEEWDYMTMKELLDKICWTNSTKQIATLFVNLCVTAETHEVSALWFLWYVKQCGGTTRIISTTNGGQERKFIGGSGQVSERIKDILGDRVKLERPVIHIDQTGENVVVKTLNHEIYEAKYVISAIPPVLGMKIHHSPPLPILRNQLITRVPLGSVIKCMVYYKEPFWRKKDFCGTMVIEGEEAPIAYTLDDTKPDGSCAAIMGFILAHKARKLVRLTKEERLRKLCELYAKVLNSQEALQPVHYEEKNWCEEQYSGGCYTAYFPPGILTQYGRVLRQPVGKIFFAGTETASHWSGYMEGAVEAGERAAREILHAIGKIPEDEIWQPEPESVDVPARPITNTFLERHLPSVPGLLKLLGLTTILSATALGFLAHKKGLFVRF
Experimental: as §1

COc1ccc2c(c1OC)CN1CCc3cc4c(cc3C1=C2)OCO4 [dhBBR, dihydroberberine]
incubation time until dhBBR became detectable [1]: ≤ 6 h
reversion from dhBBR to BBR attributable to MAO-B [2]: approximately 10%
incubation time until dhBBR became detectable [3]: ≤ 24 h
time of peak amount of dhBBR in feces ([4]; after oral BBR): 12 to 24 h
detection of dhBBR in rat excretions ([4]; oral BBR, 72-h period, urine, bile and feces): detected only in feces
dhBBR-to-BBR reversion [5]: very rapidly
incubation time after which dhBBR became detectable (nitroreductase): 4 h
dhBBR-to-BBR reversion (MAO-B): complete
